Results from US20210196681A1, “SELECTIVE PRESENILIN-2 GAMMA-SECRETASE INHIBITORS” (UNIVERSITEIT MAASTRICHT, priority 2018, published 2021).

Key:
[1] = system: oncogenic mutant Notch1 (ΔEGF-Notch1-L1594P-MYC) activity
Description: Cells transduced with ΔEGF-Notch1-L1594P construct were maintained with 1 μg/ml of puromycin. pcDNA3 hNotch1 full-length construct, encoding an N terminal FLAG-tag, followed by the ectodomains and the transmembrane domains of Notch1 fused to the Gal4 DNA binding domain and the transcriptional activation domain of Notch1 was used.
Firefly luciferase encoding reporter plasmids containing synthetic CSL binding sites (pGL4.24-12xCSL) was used to monitor Notch activity, using pGL4.74 TK-hRL (Promega) as transfection control. […] A CMV driven Firefly luciferase-GFP construct was used as transfection control. Transfections were performed using Fugene HD transfection reagent (Promega). […]
1 μg of the primary reporter was used to record the effect of specific stimuli and 0.1 μg of the control reporter for normalization. […] Cells were washed, lysed and luciferase was measured, as described by manufacturer (dual-glo luciferase reporter assay system Promega) on a Fluostar Omega plate reader (BMG Labtech) For Gal4-luciferase assay, various concentrations of the Notch receptor plasmids were transfected and complemented with empty vector. […] For Gaussia-Luc assay, medium was collected at different time points to monitor overtime 12xCSL activation and measured with the BioLux® Gaussia Luciferase Assay Kit according to manufacturer's instructions (NEB). All values are expressed as relative light units (RLU).

Presenilin 2 (Psen2) = molecular target: T1, Presenilin 2 (Psen2) (Homo sapiens, UniProt P49810); test: Presenilin specific luciferase/cleavage reporter assay in PS1/2 DKO mEF reconstituted with Presenilin 2; format: cell-based; conditions: Psen2 reconstituted cells, compared to cleavage inhibition of the same compound for Psen1; FIG. 4
T1 construct: expressed in transfected cells; host or cells: PS1/2 DKO mouse embryonic fibroblasts (mEF) reconstituted with Presenilin 2
Description: Immunoblot on cell lysates of PS1/2 DKO cells, and PS1/2 DKO reconstituted with either Presenilin 1 or Presenilin 2 were provided. Blots were probed with antibodies for nicastrin, Presenilin 1 (C-terminal fragment), Presenilin 2 (C-terminal fragment), and β-actin (loading control) to verify the cell construct used for later experiments. Double knock out of PSEN1 and PSEN2 and reconstitution were successful.
Cells were plated 24 hours prior to transfection in 6 wells plates (200.000 cells/well in 2 mL). Cells were transfected using linear polyethylenimin (P-PEI) and DMEM/f12. 2.3 μg Firefly luciferase reporter plasmids containing synthetic Gal4-binding sites (5xUAS FR-luc) were used per 6 well, as well as 150 ng herpes thymidine kinase-driven Renilla luciferase (here serving as a housekeeping gene, and thus normalizing yardstick) and 50 ng Histone-2B (H2B)-GFP (here serving as a control for transfection success). […] 24 h after transfection, […] were washed with PBS, lysed and measured following manufacturer's directions for the Dual Luciferase Reporter (DLRTM) Assay system (Promega, The Netherlands). Analysis was carried out using the FLUOstar microplate reader (BMG Labtech, Germany). […]

T1 sequence (P49810 1-297 limits assumed): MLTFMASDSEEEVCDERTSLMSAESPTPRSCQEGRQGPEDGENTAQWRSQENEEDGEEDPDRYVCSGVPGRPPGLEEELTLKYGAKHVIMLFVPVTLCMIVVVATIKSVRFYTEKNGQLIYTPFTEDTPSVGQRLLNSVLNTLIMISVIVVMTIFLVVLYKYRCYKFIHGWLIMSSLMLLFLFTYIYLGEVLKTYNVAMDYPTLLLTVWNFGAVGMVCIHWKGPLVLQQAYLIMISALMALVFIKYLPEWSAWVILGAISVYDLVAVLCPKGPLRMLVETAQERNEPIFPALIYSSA
T1 sequence (P49810 298-448 limits assumed): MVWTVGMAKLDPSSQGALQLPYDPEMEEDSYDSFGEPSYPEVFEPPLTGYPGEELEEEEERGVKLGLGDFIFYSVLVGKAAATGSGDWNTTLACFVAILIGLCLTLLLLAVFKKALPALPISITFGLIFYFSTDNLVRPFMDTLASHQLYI
T1 sequence (P57716 34-708 partner limits assumed): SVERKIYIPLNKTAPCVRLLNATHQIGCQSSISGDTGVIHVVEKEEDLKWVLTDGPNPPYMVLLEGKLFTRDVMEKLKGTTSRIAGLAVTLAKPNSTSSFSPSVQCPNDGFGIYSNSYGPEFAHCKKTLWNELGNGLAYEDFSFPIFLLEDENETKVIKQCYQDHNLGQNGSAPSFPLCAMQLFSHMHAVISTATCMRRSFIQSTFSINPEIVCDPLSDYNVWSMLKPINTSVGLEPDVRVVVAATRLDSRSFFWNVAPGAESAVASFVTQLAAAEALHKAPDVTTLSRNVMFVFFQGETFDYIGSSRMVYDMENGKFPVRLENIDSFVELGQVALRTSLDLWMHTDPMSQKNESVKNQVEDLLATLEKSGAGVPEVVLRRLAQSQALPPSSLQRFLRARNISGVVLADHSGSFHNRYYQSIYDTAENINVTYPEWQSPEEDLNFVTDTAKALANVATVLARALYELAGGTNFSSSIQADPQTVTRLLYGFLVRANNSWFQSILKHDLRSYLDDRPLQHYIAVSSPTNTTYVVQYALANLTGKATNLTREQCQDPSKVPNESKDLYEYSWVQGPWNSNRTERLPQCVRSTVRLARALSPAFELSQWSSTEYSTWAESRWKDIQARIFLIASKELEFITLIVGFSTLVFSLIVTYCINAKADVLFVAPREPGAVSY
T1 sequence (Q8BVF7 whole entry partner): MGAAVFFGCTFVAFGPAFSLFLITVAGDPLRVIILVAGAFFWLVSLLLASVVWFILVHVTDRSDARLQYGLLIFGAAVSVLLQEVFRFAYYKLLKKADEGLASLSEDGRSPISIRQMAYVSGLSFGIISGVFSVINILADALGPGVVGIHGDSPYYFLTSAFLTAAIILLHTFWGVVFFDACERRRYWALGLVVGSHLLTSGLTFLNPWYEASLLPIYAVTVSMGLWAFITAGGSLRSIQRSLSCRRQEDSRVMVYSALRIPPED
T1 sequence (Q9CQR7 whole entry partner): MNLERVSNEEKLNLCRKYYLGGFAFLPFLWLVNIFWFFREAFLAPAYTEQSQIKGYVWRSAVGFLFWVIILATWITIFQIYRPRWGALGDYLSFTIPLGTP

Compound | Inhibition of mutant Notch1 transcriptional activity by CQ [1] | Cleavage inhibition (Psen2 specificity) (Presenilin 2 (Psen2))
CCN(CC)CCCC(C)Nc1ccnc2cc(Cl)ccc12 (centres unmarked) [CQ, Chloroquine] | most strongly inhibited | –
CCC[C@H](NC(=O)[C@@H](O)c1cc(F)cc(F)c1)C(=O)Nc1cn(C(C)(C)CN(C)C)cn1 [SN262, (S)-2-((S)-2-(3,5-difluorophenyl)-2-hydroxyacetamido)-N-(1-(1-(dimethylamino)-2-methylpropan-2-yl)-1H-imidazol-4-yl)pentanamide] | – | high percentage of cleavage inhibition
